Measurements: article PMC8434776 (Antiviral research, 2021)
Like-named read-outs stand apart in the source and are kept apart here.

Tests used:
[1] = molecular target: T1, human cytochrome P450 51 (hCYP51) (Homo sapiens, UniProt Q16850); assay: enzymatic assay, [[…]-3H]lanosterol conversion by purified hCYP51/CPR, radio-HPLC; type: biochemical
T1 sequence (Q16850 1-509): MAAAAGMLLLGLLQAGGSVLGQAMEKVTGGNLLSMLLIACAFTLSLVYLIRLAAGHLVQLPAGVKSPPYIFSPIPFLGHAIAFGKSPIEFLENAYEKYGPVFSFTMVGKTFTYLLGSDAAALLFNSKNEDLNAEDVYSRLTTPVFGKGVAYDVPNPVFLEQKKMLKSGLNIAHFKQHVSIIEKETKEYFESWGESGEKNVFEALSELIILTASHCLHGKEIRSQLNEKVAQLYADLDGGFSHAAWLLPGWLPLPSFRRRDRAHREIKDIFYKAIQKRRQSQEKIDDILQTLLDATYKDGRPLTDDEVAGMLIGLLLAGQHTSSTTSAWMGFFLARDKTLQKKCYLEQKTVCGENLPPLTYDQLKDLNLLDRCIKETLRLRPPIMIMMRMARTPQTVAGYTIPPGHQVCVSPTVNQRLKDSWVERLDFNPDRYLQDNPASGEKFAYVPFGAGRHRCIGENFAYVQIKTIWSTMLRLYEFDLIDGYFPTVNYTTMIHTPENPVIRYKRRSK

[2] = molecular target: T1, human cytochrome P450 51 (hCYP51); assay: as above; type: biochemical; remark: listed apart in the source

Row | Structure (SMILES) | IC50 [1] [µM] | IC50 [2] [µM]
1 | C[C@@H](c1nc(-c2ccc(C#N)cc2)cs1)[C@](O)(Cn1cncn1)c1cc(F)ccc1F [ICZ, isavuconazole] | 50.5 | 
2 | CC[C@@H]([C@H](C)O)n1ncn(-c2ccc(N3CCN(c4ccc(OC[C@@H]5CO[C@@](Cn6cncn6)(c6ccc(F)cc6F)C5)cc4)CC3)cc2)c1=O [PCZ, posaconazole] |  | 8.3
